Literature values, collected in patent US20200078426A1, “TREATMENT OF CANCER BY INFUSION OF ONCOLYTIC HERPES SIMPLEX VIRUS TO THE BLOOD” (VIRTTU BIOLOGICS LIMITED, priority 2015, published 2020).

System: squamous cell head and neck cancer
Conditions: concurrent chemo-radiation arm, unresectable locally advanced disease; radiation alone 23%

In the case of `N.N.[Cl][Pt][Cl]` [cisplatin], the “three year overall survival” value is given as 37%.
